{
  "source": "BindingDB's records for patent US10660876",
  "about": "(Achillion Pharmaceuticals, 2020)",
  "data": [
    {"target": "Complement factor D (Homo sapiens, UniProt P00746)", "sequence (P00746 whole entry)": "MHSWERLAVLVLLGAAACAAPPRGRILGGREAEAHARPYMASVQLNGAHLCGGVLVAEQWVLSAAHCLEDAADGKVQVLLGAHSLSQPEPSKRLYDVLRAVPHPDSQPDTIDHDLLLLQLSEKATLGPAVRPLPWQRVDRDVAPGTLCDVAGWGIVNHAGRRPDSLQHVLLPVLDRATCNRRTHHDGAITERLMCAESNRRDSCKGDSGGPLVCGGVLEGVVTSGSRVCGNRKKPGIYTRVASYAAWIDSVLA", "experiment": "Inhibition Assay", "description": "Human Factor D (purified from human serum, Complement Technology, Inc.) at 80 nM final concentration is incubated with test compound at various concentrations for 5 minutes at room temperature in 50 mM Tris, 1M NaCl, pH 7.5. A synthetic substrate Z-L-Lys-SBzl and DTNB (Ellman's reagent) are added to final concentrations of 100 µM each. Absorbance at 405 nm (A405) is recorded at 30 second intervals for 30 minutes using a microplate spectrophotometer. IC50 values are calculated by nonlinear regression of complement Factor D reaction rates as a function of test compound concentration.", "values": [
      {"smiles": "CC(=O)c1cn(CC(=O)N2C[C@H](F)C[C@H]2C(=O)Nc2ccccc2N2CCOC2=O)c2ccc(Nc3cncnc3)cc12", "note": "[US10660876, Cmpd No. 40]", "IC50": "in the range around 5.5 µM"},
      {"smiles": "CC(=O)c1cn(CC(=O)N2C[C@H](F)C[C@H]2C(=O)Nc2ccc(CN)cc2)c2ccc(Nc3cncnc3)cc12", "note": "[US10660876, Cmpd No. 53]", "IC50": "in the range around 5.5 µM"},
      {"smiles": "CC(=O)c1cn(CC(=O)N2C[C@H](F)C[C@H]2C(=O)N[C@H]2CCCC[C@@H]2O)c2ccc(Nc3cncnc3)cc12", "note": "[US10660876, Cmpd No. 36]", "IC50": "in the range around 5.5 µM"},
      {"smiles": "COc1cc(C)cc2c1OCCC2NC(=O)[C@@H]1C[C@@H](F)CN1C(=O)Cn1cc(C(C)=O)c2cc(Nc3cncnc3)ccc21", "note": "(some centres undefined) [US10660876, Cmpd No. 54]", "IC50": "in the range around 5.5 µM"},
      {"smiles": "CC(=O)c1cn(CC(=O)N2C[C@H](F)C[C@H]2C(=O)Nc2ccccc2-c2nc3ccccc3s2)c2ccc(Nc3cncnc3)cc12", "note": "[US10660876, Cmpd No. 32]", "IC50": "> 10 µM"},
      {"smiles": "CNC(=O)[C@@H]1C[C@@H](F)CN1C(=O)Cn1cc(C(C)=O)c2cc(Nc3cncnc3)ccc21", "note": "[US10660876, Cmpd No. 20]", "IC50": "in the range around 5.5 µM"},
      {"smiles": "CC(=O)c1cn(CC(=O)N2C[C@H](F)C[C@H]2C(=O)Nc2ccccc2-n2nccc2C)c2ccc(Nc3cncnc3)cc12", "note": "[US10660876, Cmpd No. 30]", "IC50": "in the range around 5.5 µM"},
      {"smiles": "CC(=O)c1cn(CC(=O)N2C[C@H](F)C[C@H]2C(=O)Nc2cccc(Cl)c2-n2cncn2)c2ccc(Nc3cncnc3)cc12", "note": "[US10660876, Cmpd No. 37]", "IC50": "in the range around 5.5 µM"},
      {"smiles": "CC(=O)c1cn(CC(=O)N2C[C@H](F)C[C@H]2C(=O)Nc2c[nH]nc2-c2ccc(Cl)cc2Cl)c2ccc(Nc3cncnc3)cc12", "note": "[US10660876, Cmpd No. 55]", "IC50": "in the range around 5.5 µM"},
      {"smiles": "CC(=O)c1cn(CC(=O)N2C[C@H](F)C[C@H]2C(=O)NCc2nc3ccccc3s2)c2ccc(Nc3cncnc3)cc12", "note": "[US10660876, Cmpd No. 16]", "IC50": "in the range around 5.5 µM"},
      {"smiles": "CC(=O)c1cn(CC(=O)N2C[C@H](F)C[C@H]2C(=O)Nc2nnc(-c3ccccc3Cl)s2)c2ccc(Nc3cncnc3)cc12", "note": "[US10660876, Cmpd No. 34]", "IC50": "in the range around 5.5 µM"},
      {"smiles": "CC(=O)c1cn(CC(=O)N2C[C@H](F)C[C@H]2C(=O)Nc2nc(-c3c(C)nc4sccn34)cs2)c2ccc(Nc3cncnc3)cc12", "note": "[US10660876, Cmpd No. 49]", "IC50": "in the range around 5.5 µM"},
      {"smiles": "CC(=O)c1cn(CC(=O)N2C[C@H](F)C[C@H]2C(=O)NC2CCc3c(F)ccc(F)c32)c2ccc(Nc3cncnc3)cc12", "note": "(some centres undefined) [US10660876, Cmpd No. 51]", "IC50": "in the range around 5.5 µM"},
      {"smiles": "CC(=O)c1cn(CC(=O)N2C[C@H](F)C[C@H]2C(=O)NCc2cccc(Cl)c2F)c2cc(N(CC(=O)N3C[C@H](F)C[C@H]3C(=O)NCc3cccc(Cl)c3F)S(C)(=O)=O)ccc12", "note": "[US10660876, Cmpd No. 1]", "IC50": "in the range around 5.5 µM"}
    ]}
  ]
}
